The experiment deals with ALK2 (Homo sapiens (Human), UniProt Q04771). In words: ALK2 inhibition, LanthaScreen Eu Kinase Binding Assay (ThermoFisher Scientific / Life Technologies). Particulars: read-out: Measured Ki (IC50) Value for Compounds: IC50. As to the method:
Biochemical assays to measure the inhibitory effects of the compounds were performed by ThermoFisher Scientific (Life Technologies). ALK2 inhibition was tested using LanthaScreen™ Eu Kinase Binding Assay screening protocol.

Structures are written as SMILES. Some results are limits rather than exact numbers.

Chain of ALK2 (Q04771 21-509): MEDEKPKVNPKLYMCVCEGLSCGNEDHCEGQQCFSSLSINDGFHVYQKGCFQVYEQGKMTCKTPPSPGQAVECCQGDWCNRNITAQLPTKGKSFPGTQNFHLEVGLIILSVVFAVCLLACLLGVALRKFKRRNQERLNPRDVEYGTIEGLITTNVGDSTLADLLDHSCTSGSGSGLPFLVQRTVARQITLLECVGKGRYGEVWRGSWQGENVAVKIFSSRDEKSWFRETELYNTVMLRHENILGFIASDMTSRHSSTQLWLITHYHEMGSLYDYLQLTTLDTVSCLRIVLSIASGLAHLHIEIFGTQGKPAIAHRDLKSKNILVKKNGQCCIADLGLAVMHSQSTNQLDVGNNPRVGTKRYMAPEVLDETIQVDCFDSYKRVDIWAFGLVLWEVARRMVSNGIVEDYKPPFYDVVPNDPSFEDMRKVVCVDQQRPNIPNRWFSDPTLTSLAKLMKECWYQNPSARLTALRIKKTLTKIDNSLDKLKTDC

By IC50 is commonly meant the concentration that gives 50% inhibition. For the molecule `COc1cc(-n2cnc(Nc3nc4c(c(N5CCC[C@H]5CO)n3)CN(C(=O)OC(C)(C)C)CC4)c2)cc(OC)c1OC` [Compound 181c, (S)-tert-butyl 4-(2-(hydroxymethyl)pyrrolidin-1-yl)-2-((1-(3,4,5-trimethoxyphenyl)-1H-imidazol-4-yl)amino)-7,8-dihydropyrido[4,3-d]pyrimidine-6(5H)-carboxylate], the IC50 is less than 0.1 µM.

In the case of `OC[C@@H]1CCCN1c1cc(Cl)c2ccccc2n1` [Compound 367b, (S)-(1-(4-chloroquinolin-2-yl)pyrrolidin-2-yl)methanol], the IC50 was more than 1 µM. Next, `COc1cc(-n2cnc(Nc3nc(N4CCC[C@H]4CO)c4cccc(OC(C)C)c4n3)c2)cc(OC)c1OC` [Compound 200b, (S)-(1-(8-isopropoxy-2-((1-(3,4,5-trimethoxyphenyl)-1H-imidazol-4-yl)amino)quinazolin-4-yl)pyrrolidin-2-yl)methanol]: less than 0.1 µM; `COc1cc(-n2cnc(Nc3nc4c(c(N5CCC[C@H]5CO)n3)CCN(Cc3cccc(C#N)c3)C4)c2)cc(OC)c1OC` [Compound 220a, (S)-3-((4-(2-(hydroxymethyl)pyrrolidin-1-yl)-2-((1-(3,4,5-trimethoxyphenyl)-1H-imidazol-4-yl)amino)-5,6-dihydropyrido[3,4-d]pyrimidin-7(8H)-yl)methyl)benzonitrile]: less than 0.1 µM. Next, `COc1cc(-n2cnc(Nc3nc(N4CCC[C@H]4C(N)=O)nc4c3CNC4)c2)cc(OC)c1OC` [Compound 360c, (S)-1-(4-(1-(3,4,5-trimethoxyphenyl)-1H-imidazol-4-ylamino)-6,7-dihydro-5H-pyrrolo[3,4-d]pyrimidin-2-yl)pyrrolidine-2-carboxamide]: less than 0.1 µM; `COc1cc(-n2cnc(Nc3nc(N4CCC[C@@H]4CO)nc4ccsc34)c2)cc(OC)c1OC` [Compound 303a, (R)-(1-(4-((1-(3,4,5-trimethoxyphenyl)-1H-imidazol-4-yl)amino)thieno[3,2-d]pyrimidin-2-yl)pyrrolidin-2-yl)methanol]: less than 0.1 µM.

On to `OC[C@@H]1CCCN1c1nc(Nc2cn(-c3ccc(F)cc3)cn2)c2ccsc2n1` [Compound 60b, (S)-(1-(4-((1-(4-fluorophenyl)-1H-imidazol-4-yl)amino)thieno[2,3-d]pyrimidin-2-yl)pyrrolidin-2-yl)methanol], for which the IC50 was less than 0.1 µM. Next, `COc1cc(-c2cnc(Nc3nc(N4CCC[C@H]4CO)nn4cccc34)s2)cc(OC)c1OC` [Compound 461c, (S)-(1-(4-((5-(3,4,5-trimethoxyphenyl)thiazol-2-yl)amino)pyrrolo[2,1-f][1,2,4]triazin-2-yl)pyrrolidin-2-yl)methanol]: less than 0.1 µM; `COc1cc(-n2cnc(Nc3nc(N4CCC[C@@H]4C(N)=O)nc4ccccc34)c2)cc(OC)c1OC` [Compound 305a, (R)-1-(4-((1-(3,4,5-trimethoxyphenyl)-1H-imidazol-4-yl)amino)quinazolin-2-yl)pyrrolidine-2-carboxamide]: less than 0.1 µM. For `COc1cc(-n2cnc(Nc3nc(N4CCC[C@H]4C(N)=O)c4[nH]ccc4n3)c2)cc(OC)c1OC` [Compound 191c, (S)-1-(2-((1-(3,4,5-trimethoxyphenyl)-1H-imidazol-4-yl)amino)-5H-pyrrolo[3,2-d]pyrimidin-4-yl)pyrrolidine-2-carboxamide], the IC50 is less than 0.1 µM.

Turning to `OC[C@@H]1CCCN1c1nc(Nc2cn(-c3cccc(F)c3)cn2)c2cccn2n1` [Compound 44c, (S)-(1-(4-((1-(3-fluorophenyl)-1H-imidazol-4-yl)amino)pyrrolo[2,1-f][1,2,4]triazin-2-yl)pyrrolidin-2-yl)methanol], the 50% inhibitory concentration (IC50) was less than 0.1 µM. For `COc1cc(-n2cnc(Nc3nc(N4CCC[C@H]4C(N)=O)nc4c(OC(C)C)cccc34)c2)cc(OC)c1OC` [Compound 143h, (S)-1-(8-isopropoxy-4-((1-(3,4,5-trimethoxyphenyl)-1H-imidazol-4-yl)amino)quinazolin-2-yl)pyrrolidine-2-carboxamide] the value was less than 0.1 µM; for `COc1cc(-n2cnc(Nc3nc4c(c(N5CCC[C@H]5CO)n3)CCC4)c2)cc(OC)c1OC` [Compound 271c, (S)-(1-(2-((1-(3,4,5-trimethoxyphenyl)-1H-imidazol-4-yl)amino)-6,7-dihydro-5H-cyclopenta[d]pyrimidin-4-yl)pyrrolidin-2-yl)methanol], less than 0.1 µM. Next, `CNC(=O)c1cc(OC)cc(-n2cnc(Nc3nc(N4CCC[C@H]4CO)nn4cccc34)c2)c1` [Compound 427b, (S)-3-(4-((2-(2-(hydroxymethyl)pyrrolidin-1-yl)pyrrolo[2,1-f][1,2,4]triazin-4-yl)amino)-1H-imidazol-1-yl)-5-methoxy-N-methylbenzamide]: less than 0.1 µM; `COc1cc(-n2cnc(Nc3nc(N4CCC[C@H]4CO)nn4c(CN5CCN(C(=O)OC(C)(C)C)CC5)ccc34)c2)cc(OC)c1OC` [Compound 121b, (S)-tert-butyl 4-((2-(2-(hydroxymethyl)pyrrolidin-1-yl)-4-((1-(3,4,5-trimethoxyphenyl)-1H-imidazol-4-yl)amino)pyrrolo[2,1-f][1,2,4]triazin-7-yl)methyl)piperazine-1-carboxylate]: less than 0.1 µM; `OC[C@@H]1CCCN1c1nc(Nc2cn(-c3cn(C4CCCC4)cn3)cn2)c2cccn2n1` [Compound 451d, (S)-(1-(4-((1′-cyclopentyl-1′H-[1,4′-biimidazol]-4-yl)amino)pyrrolo[2,1-f][1,2,4]triazin-2-yl)pyrrolidin-2-yl)methanol]: 0.1 to 1 µM. In the case of `COc1cc(-n2cnc(Nc3nc(N4CCC[C@H]4CO)c4ncn(C)c4n3)c2)cc(OC)c1OC` [Compound 388b, (S)-(1-(9-methyl-2-((1-(3,4,5-trimethoxyphenyl)-1H-imidazol-4-yl)amino)-9H-purin-6-yl)pyrrolidin-2-yl)methanol], the IC50 was less than 0.1 µM. As to `COc1cc(-n2cnc(Nc3nc(N4CCC[C@H]4CO)c4occc4n3)c2)cc(OC)c1OC` [Compound 148b, (S)-(1-(2-((1-(3,4,5-trimethoxyphenyl)-1H-imidazol-4-yl)amino)furo[3,2-d]pyrimidin-4-yl)pyrrolidin-2-yl)methanol], the IC50 was less than 0.1 µM.

Consider `COc1cc(-n2cnc(Nc3nc(N4CCC[C@H]4CO)c4cnn(C5CCC5)c4n3)c2)cc(OC)c1OC` [Compound 464d, (S)-(1-(1-cyclobutyl-6-((1-(3,4,5-trimethoxyphenyl)-1H-imidazol-4-yl)amino)-1H-pyrazolo[3,4-d]pyrimidin-4-yl)pyrrolidin-2-yl)methanol], for which the IC50 was less than 0.1 µM. For `CC(C)(C)OC(=O)N1CC=C(c2ccc3c(Nc4cn(-c5ccccc5)cn4)nc(N4CCC[C@H]4CO)nn23)CC1` [Compound 80a, (S)-tert-butyl 4-(2-(2-(hydroxymethyl)pyrrolidin-1-yl)-4-(1-phenyl-1H-imidazol-4-ylamino)pyrrolo[1,2-f][1,2,4]triazin-7-yl)-5,6-dihydropyridine-1(2H)-carboxylate] the value was 0.1 to 1 µM; for `c1ccc([C@@H]2CCCN2c2nc(Nc3cn(C4CCC4)cn3)c3cccn3n2)cc1` [Compound 63a, (S)—N-(1-cyclobutyl-1H-imidazol-4-yl)-2-(2-phenylpyrrolidin-1-yl)pyrrolo[2,1-f][1,2,4]triazin-4-amine], less than 0.1 µM; for `COc1cc(-n2cnc(Nc3nc(N4CCN(C)CC4)nn4cccc34)c2)cc(OC)c1OC` [Compound 334a, 2-(4-methylpiperazin-1-yl)-N-(1-(3,4,5-trimethoxyphenyl)-1H-imidazol-4-yl)pyrrolo[2,1-f][1,2,4]triazin-4-amine], less than 0.1 µM. For `Cn1cnc(Nc2nc(N3CCC[C@H]3c3ccccn3)nn3cccc23)c1` [Compound 18a, (S)—N-(1-methyl-1H-imidazol-4-yl)-2-(2-(pyridin-2-yl)pyrrolidin-1-yl)pyrrolo[2,1-f][1,2,4]triazin-4-amine] the value was less than 0.1 µM. For `COc1cc(-n2cnc(Nc3nc(N4CCCC4)nc4c3ccn4S(=O)(=O)c3ccc(C)cc3)c2)cc(OC)c1OC` [Compound 163a, 2-(pyrrolidin-1-yl)-7-tosyl-N-(1-(3,4,5-trimethoxyphenyl)-1H-imidazol-4-yl)-7H-pyrrolo[2,3-d]pyrimidin-4-amine] the value was 0.1 to 1 µM. In the case of `COc1cc(-n2cnc(Nc3nc(N4CCC[C@H]4C(N)=O)nc4sc(CN5CCN(C)CC5)cc34)c2)cc(OC)c1OC` [Compound 405b, (S)-1-(6-((4-methylpiperazin-1-yl)methyl)-4-((1-(3,4,5-trimethoxyphenyl)-1H-imidazol-4-yl)amino)thieno[2,3-d]pyrimidin-2-yl)pyrrolidine-2-carboxamide], the IC50 is less than 0.1 µM. For `Cc1csc2c(Nc3cn(-c4ccccc4)cn3)nc(N3CCC[C@H]3CO)nc12` [Compound 41c, (S)-(1-(7-methyl-4-((1-phenyl-1H-imidazol-4-yl)amino)thieno[3,2-d]pyrimidin-2-yl)pyrrolidin-2-yl)methanol] the value was less than 0.1 µM. Next, `OC[C@@H]1CCCN1c1nc(Nc2cn(-c3ccncc3)cn2)c2cccn2n1` [Compound 421e, (S)-(1-(4-((1-(pyridin-4-yl)-1H-imidazol-4-yl)amino)pyrrolo[2,1-f][1,2,4]triazin-2-yl)pyrrolidin-2-yl)methanol]: less than 0.1 µM. Next, `COc1cc(-n2cnc(Nc3nc(N4CCC[C@H]4CO)c4ccc(OC(C)C)cc4n3)c2)cc(OC)c1OC` [Compound 244b, (S)-(1-(7-isopropoxy-2-((1-(3,4,5-trimethoxyphenyl)-1H-imidazol-4-yl)amino)quinazolin-4-yl)pyrrolidin-2-yl)methanol]: less than 0.1 µM. `COc1cc(-n2cnc(Nc3nc(N4CCC[C@H]4CO)nc4cnn(C)c34)c2)cc(OC)c1OC` [Compound 316a, (S)-(1-(1-methyl-7-((1-(3,4,5-trimethoxyphenyl)-1H-imidazol-4-yl)amino)-1H-pyrazolo[4,3-d]pyrimidin-5-yl)pyrrolidin-2-yl)methanol]: the IC50 lay within 0.1 to 1 µM. For `COc1cc(-n2cnc(Nc3nc(N4CCCC4)c4cccn4n3)c2)cc(OC)c1OC` [Compound 168b, 4-(pyrrolidin-1-yl)-N-(1-(3,4,5-trimethoxyphenyl)-1H-imidazol-4-yl)pyrrolo[2,1-f][1,2,4]triazin-2-amine] the value was 0.1 to 1 µM.

These data come from patent US11661426B2, “Imidazole-containing inhibitors of ALK2 kinase” (BioCryst Pharmaceuticals, Inc., priority 2017, dated 2023).
